pIC50: −log10 of the molar value. Structures can show the parent of a compound that is named as a salt. Where two headings read alike, the source gives them in different places.
Experiments:
[1] = cited from earlier work
[2] = test system: αSMA; assay: αSMA intensity (fibroblast activation) in IPF patient-derived lung fibroblasts + TGFβ, dopaminergic agonist library; format: cell-based, human; conditions: Homo sapiens, SMA, 72 h, 1 μM + TGFβ, read-out: αSMA intensity (% of DMSO control)
Protocol: Media was then exchanged for the indicated conditions for each experiment. […] Cells or tissue sections were incubated overnight with mouse monoclonal antibody against αSMA (Sigma-Aldrich F3777), and/or a rabbit monoclonal antibody against YAP/TAZ (Cell Signaling D24E4) diluted 1:200 in PBS with 1% BSA. Cells were then washed and exposed to flourescence-conjugated secondary antibodies (Invitrogen) diluted 1:1000 and DAPI (Thermo Fisher Scientific). Images were taken with a Cytation5 (BioTek) microscope. For scoring αSMA positive cells (FIG. 12), an observer blinded to the treatment conditions counted αSMA-positive cells using a visual threshold for bright fibrous staining; a minimum of 200 cells was counted for each condition. YAP/TAZ localization was quantified (FIGS. 6-10, 24-26, and 29-30) using Gen5 (Biotek) software. Images were taken at 4× magnification of both DAPI and YAP/TAZ staining. […] Quantification of double positive (YAP/TAZ and αSMA) cells from lung tissue sections (FIG. 17-21) was performed similarly; however separate thresholds were established for both YAP/TAZ and αSMA. A minimum of 4000 cells was quantified for each mouse.

[3] = test system: YAP/TAZ; assay: YAP/TAZ nuclear localization in IPF patient-derived lung fibroblasts treated with dopaminergic agonists; format: cell-based, human; conditions: 10 μM, 2 hours
Method in brief: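 Fibroblasts from IPF patients (N=4 patient samples) were exposed to dopaminergic agonists at 10 μM for 2 h before fixation. Cells were immunostained for YAP/TAZ with DAPI counterstain and imaged at 4×. Percent nuclear YAP/TAZ localization was quantified by automated image analysis.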

[4] = test system: Collagen I; assay: Collagen I deposition by TGFβ-stimulated adult lung fibroblasts (LI-COR Odyssey); format: cell-based; conditions: Homo sapiens, Fibroblast, 2 ng/mL TGFβ 96 hours, compound every 48 hours
Protocol: (§1) FIG. 72 contains a line plot showing that compound CTC-3 inhibits Collagen I deposition. Adult lung fibroblasts plated into 96-well plates, stimulated with 2 ng/mL TGFβ for 96 hours and treated with the indicated concentration of compounds every 48 hours. Imaging and quantification of Collagen I intensity performed through automation using a LI-COR Odyssey.
as §1, with “73” for “72”, “CTC-6” for “CTC-3”, “Odyssey. (IC50 is 0.4 μM).” for “Odyssey.”
as §1, with “91B” for “72”, “1” for “CTC-3”
Imaging and quantification of collagen I intensity performed through automation using a LI-COR Odyssey.

[5] = test system: lung fibroblasts; assay: Fibroblast proliferation (counting DAPI nuclei); format: cell-based, human; conditions: adult lung fibroblasts, 2 ng/mL TGFβ, DAPI nuclei count
Protocol: IPF fibroblast and Normal lung fibroblast co-culture proliferation. Cell are prelabelled with fluorescent dyes (red and green) and then cocultured at a ratio of about 1:1 in 96 well plates. Cell counts are determined every 24 hours and plotted as a ratio of IPF/HLF cells. In the control wells the IPF cells outgrow and take over the well. N=2.
Proliferation of lung fibroblasts (IMR-90 cells) measured for 4 days in the presence of GPCR agonists ET-1 (100 nM) and LPA (10 μM)+/−10 μM DHX. Cells were fixed and counted with DAPI at the end of each day. N=3 technical triplicates.
Adult lung fibroblasts plated into 96-well plates, stimulated with 2 ng/mL TGFβ and compounds at the indicated concentration. Proliferation determined by fixing and counting DAPI nuclei using a Cytation 5. N=2.
Fibroblasts were stimulated with 2 ng/mL TGFβ and treated with compound 1 (MS-9) at the indicated concentration (0.1 μM, 1 μM, and 10 μM). Proliferation determined by fixing and counting DAPI nuclei using a Cytation.

[6] = test system: αSMA; assay: Fibroblast activation: αSMA intensity in TGFβ-stimulated adult lung fibroblasts; format: cell-based; conditions: Homo sapiens, SMA, 2 ng/mL TGFβ 96 hours, compound every 48 hours
Protocol: as §1, with “70” for “72”, “fibroblast activation.” for “Collagen I deposition.”, “αSMA” for “Collagen I”, “Cytation 5. (IC50 is 0.3 μM).” for “LI-COR Odyssey.”
as §1, with “71” for “72”, “CTC-6” for “CTC-3”, “fibroblast activation.” for “Collagen I deposition.”, “αSMA” for “Collagen I”, “Cytation 5.” for “LI-COR Odyssey.”
as §1, with “91A” for “72”, “1” for “CTC-3”, “fibroblast activation.” for “Collagen I deposition.”, “αSMA” for “Collagen I”, “Cytation 5.” for “LI-COR Odyssey.”
Alpha-smooth muscle actin (αSMA) staining is a well-defined marker of fibroblast activation observed in wound healing and tissue fibrosis. […] Imaging and quantification of αSMA intensity performed through automation using a Cytation 5.

[7] = test system: YAP/TAZ; assay: YAP/TAZ nuclear localization in adult lung fibroblasts, dose response (Cytation 5); format: cell-based; conditions: Homo sapiens, Fibroblast, 2 h, adult lung fibroblasts sparsely plated, treated 2 hours; read-out: IC50, inhibition of YAP/TAZ nuclear localization
Protocol: Adult lung fibroblasts (N=2) sparsely plated into 96-well plates. Treated for 2 hours with compounds prior to fixing and immunostaining for YAP/TAZ.
(§2) Immunofluorescence Microscopy: Cells were plated into 96 well plates (Corning 3603) in their specific growth media and allowed to attach (8 hours). Media was then exchanged for the indicated conditions for each experiment. Cells were fixed in 3.7% formalin (Sigma-Aldrich), permeabilized in 0.25% Triton X-100 (Sigma-Aldrich) and then blocked with 1% BSA for 1 h. Cells or tissue sections were incubated overnight with mouse monoclonal antibody against αSMA (Sigma-Aldrich F3777), and/or a rabbit monoclonal antibody against YAP/TAZ (Cell Signaling D24E4) diluted 1:200 in PBS with 1% BSA. Cells were then washed and exposed to flourescence-conjugated secondary antibodies (Invitrogen) diluted 1:1000 and DAPI (Thermo Fisher Scientific). Images were taken with a Cytation5 (BioTek) microscope. For scoring αSMA positive cells (FIG. 12), an observer blinded to the treatment conditions counted αSMA-positive cells using a visual threshold for bright fibrous staining; a minimum of 200 cells was counted for each condition. YAP/TAZ localization was quantified (FIGS. 6-10, 24-26, and 29-30) using Gen5 (Biotek) software. Images were taken at 4× magnification of both DAPI and YAP/TAZ staining. […] Quantification of double positive (YAP/TAZ and αSMA) cells from lung tissue sections (FIG. 17-21) was performed similarly; however separate thresholds were established for both YAP/TAZ and αSMA. A minimum of 4000 cells was quantified for each mouse.

[8] = test system: YAP/TAZ; assay: YAP/TAZ nuclear localization in IMR-90 and other fibroblasts / mesenchymal cells (immunofluorescence); format: cell-based, human; conditions: fibroblasts / mesenchymal cells on plastic, 2 hours
Protocol: Selective agonists of dopamine receptor D1 with varying efficacy inhibit YAP/TAZ nuclear localization; this effect can be overcome by treatment with a DRD1 receptor antagonist (SCH 39166, 3 μM), (Dihydrexidine, 10 μM). IMR-90 cells treated 2 hours prior to fixation. N=4 (****p<0.0001 vs. 0.10% DMSO vehicle control). Scale bar represents 100 μm.
In each case DHX treatment (10 μM) can reverse this effect on YAP/TAZ. IMR-90 cells plated densely onto plastic cell culture plates for 24 hours in media containing 0.1% FBS, treated for 2 hours prior to fixation. N=4 (****p<0.0001 vs. 0.1% DMSO vehicle control), (++++p<0.0001 vs. the respective stimulated agonist ET-1, LPA, or 5-HT). Scale bar represents 100 μm.
Mesenchymal cells derived from lung (IMR-90 and IPF-FBs) hepatic stellate cells (HSC), human adult cardiac fibroblasts, (HACF) and human dermal fibroblasts (HDF) were plated densely (Confluent) or sparsely (Control and all remaining conditions) onto plastic cell culture plates for 24 hours in media containing 0.10% FBS, treated for 2 hours with Rho kinase inhibitor Y27632, adenylate cyclase activator forskolin and DHX. N=4, Cells that were positive for nuclear YAP/TAZ were quantified by automated image analysis.
as §2

Row | Compound | oxidation / stability at physiological pH [1] | activity at 1 µM ([2]; IPF-1 patient fibroblasts) | activity at 1 µM ([2]; IPF-2 patient fibroblasts) | activity at 1 µM ([2]; IPF-3 patient fibroblasts) | activity at 1 µM ([2]; IPF-4 patient fibroblasts) | Nuclear localization (% of total cells) ([3]; IPF-1 patient fibroblasts) | Nuclear localization (% of total cells) ([3]; IPF-2 patient fibroblasts) | Nuclear localization (% of total cells) ([3]; IPF-3 patient fibroblasts) | Nuclear localization (% of total cells) ([3]; IPF-4 patient fibroblasts) | pIC50 [4] | fibroblast proliferation [5] | pIC50 [6] | pIC50 [7] | YAP/TAZ nuclear localization [8]
1 | CN1CCc2cccc3c2[C@H]1Cc1ccc(O)c(O)c1-3 [(R)-(−)-Apomorphine•HCl, (R)-(−)-Apomorphine] | oxidized into the inactive quinone | 7.07% | 1.17% | 0.962% | 33.7% | 29.21 % of total cells | 31.97 % of total cells | 27.47 % of total cells | 17.86 % of total cells |  |  |  |  | 
2 | NCC1OC(C2CCOCC2)Cc2c1ccc(O)c2O (stereo not shown) [CTC-3] |  |  |  |  |  |  |  |  |  | 6.15 | inhibits fibroblast proliferation | 6.52 |  | 
3 | NCC1OC(c2ccncc2)Cc2c1ccc(O)c2O (stereo not shown) [CTC-6] |  |  |  |  |  |  |  |  |  | 6.40 | inhibits fibroblast proliferation | 7.00 | 7.21 | 
4 | Oc1ccc(C2CNCCc3c2cc(O)c(O)c3Cl)cc1 (stereo not shown) [Fenoldopam•HCl, Fenoldopam] | stable at physiological pH |  |  |  |  | 68.1 % of total cells | 50.32 % of total cells | 66.64 % of total cells | 63 % of total cells |  |  |  |  | reduced nuclear localization of YAP/TAZ
